Legend:
[1] = system: rabbit serum obtained by immunizing a rabbit with the SARS-CoV strain Frankfurt 1; assay type: binding; design: Binding of a rabbit serum to linear peptides / Binding of a rabbit serum to looped peptides / Rabbit serum linear peptides / Rabbit serum looped peptides / Binding of a rabbit serum to linear peptides of protein N of SARS-CoV Urbani (Rabbit serum linear peptides) / Binding of a rabbit serum to looped/cyclic peptides of protein N of SARS-CoV Urbani (Rabbit serum looped peptides): unit not given here
[2] = system: antibodies in sera from SARS patients (sera 1a, 1b, 2, 6, 37, 62, London, SARS-yellow, SARS-green); assay type: binding, human; design: Binding of serum 6 to linear peptides of protein X1 of SARS-CoV Urbani / Binding of serum 37 to linear peptides of protein X1 of SARS-CoV Urbani / Binding of serum 6 to looped/cyclic peptide (PEPSCAN-ELISA) / Binding of serum 37 to looped/cyclic peptide (PEPSCAN-ELISA) / Binding of serum 37 to looped/cyclic peptides of protein X1 of SARS-CoV Urbani / Binding of serum 6 to linear peptides of protein X2 / Binding of serum 37 to linear peptides of protein X2 / Binding of serum 37 to looped/cyclic peptides of protein X2 of SARS-CoV Urbani / Binding of serum 6 to linear peptides of protein M of SARS-CoV Urbani / Binding of serum 37 to linear peptides of protein M of SARS-CoV Urbani / Binding of serum 6 to looped/cyclic peptides of protein M of SARS-CoV Urbani / Binding of serum 37 to looped/cyclic peptides of protein M of SARS-CoV Urbani / Binding of serum 6 to linear peptides of protein X3 of SARS-CoV Urbani / Binding of serum 37 to linear peptides of protein X3 of SARS-CoV Urbani / Binding of serum 37 to looped/cyclic peptides of protein X3 of SARS-CoV Urbani / Binding of serum 6 to linear peptides of protein X4 of SARS-CoV Urbani / Binding of serum 37 to linear peptides of protein X4 of SARS-CoV Urbani / Binding of serum 37 to looped/cyclic peptides of protein X4 of SARS-CoV Urbani / Binding of serum 6 to linear peptides of protein X5 of SARS-CoV Urbani / Binding of serum 37 to linear peptides of protein X5 of SARS-CoV Urbani / Binding of serum 37 to looped/cyclic peptides of protein X5 of SARS-CoV Urbani / Binding of serum 6 to linear peptides of protein N of SARS-CoV Urbani / Binding of serum 37 to linear peptides of protein N of SARS-CoV Urbani / Binding of serum 6 to linear peptide (PEPSCAN-ELISA) / Binding of serum 1a to looped/cyclic peptides of protein N of SARS-CoV Urbani / Binding of serum 1b to looped/cyclic peptides of protein N of SARS-CoV Urbani / Binding of serum 2 to looped/cyclic peptides of protein N of SARS-CoV Urbani / Binding of serum 6 to looped/cyclic peptides of protein N of SARS-CoV Urbani / Binding of serum 37 to looped/cyclic peptides of protein N of SARS-CoV Urbani / Binding of serum 62 to looped/cyclic peptides of protein N of SARS-CoV Urbani / Binding of serum London to looped/cyclic peptides of protein N of SARS-CoV Urbani / Binding of serum SARS-green to looped/cyclic peptides of protein N of SARS-CoV Urbani: unit not given here
[3] = system: recombinant human anti-SARS-CoV antibody 03-018; assay type: binding; design: Binding of antibody 03-018 to linear peptides of the N protein of SARS-CoV Urbani / Binding of antibody 03-018 to looped/cyclic peptides of the N protein of SARS-CoV Urbani: unit not given here
[4] = system: control sera (pooled serum of ten healthy LUMC hospital workers; commercial negative donor pooled serum from the Dutch bloodbank); assay type: binding, human; design: Binding of Control serum LUMC to linear peptides / Binding of Control serum Blood-bank to linear peptides / Binding of Control serum LUMC to looped peptides / Binding of Control Serum Blood-Bank to Looped peptides / Binding of Control serum LUMC to linear peptides of the protein M of SARS-CoV Urbani / Binding of Control serum Blood-bank to linear peptides of the protein M of SARS-CoV Urbani / Binding of Control serum LUMC to looped peptides of the protein M of SARS-CoV Urbani / Binding of Control Serum Blood-Bank to Looped peptides of the protein M of SARS-CoV Urbani: unit not given here

Sequence | Binding of a rabbit serum to linear peptides of protein N of SARS-CoV Urbani (Rabbit serum linear peptides) [1] | Binding of a rabbit serum to looped/cyclic peptides of protein N of SARS-CoV Urbani (Rabbit serum looped peptides) [1] | Binding of serum 1a to looped/cyclic peptides of protein N of SARS-CoV Urbani [2] | Binding of serum 1b to looped/cyclic peptides of protein N of SARS-CoV Urbani [2] | Binding of serum 2 to looped/cyclic peptides of protein N of SARS-CoV Urbani [2] | Binding of serum 6 to looped/cyclic peptides of protein N of SARS-CoV Urbani [2] | Binding of serum 37 to looped/cyclic peptides of protein N of SARS-CoV Urbani [2] | Binding of serum 62 to looped/cyclic peptides of protein N of SARS-CoV Urbani [2] | Binding of serum London to looped/cyclic peptides of protein N of SARS-CoV Urbani [2] | Binding of serum SARS-green to looped/cyclic peptides of protein N of SARS-CoV Urbani [2] | Binding of serum SARS-yellow to looped/cyclic peptides of protein N of SARS-CoV Urbani [2] | Binding of antibody 03-018 to linear peptides of the N protein of SARS-CoV Urbani [3] | Binding of antibody 03-018 to looped/cyclic peptides of the N protein of SARS-CoV Urbani [3] | Binding of serum 1a to linear peptides of protein N of SARS-CoV Urbani [2] | Binding of serum 1b to linear peptides of protein N of SARS-CoV Urbani [2] | Binding of serum 2 to linear peptides of protein N of SARS-CoV Urbani [2] | Binding of serum 6 to linear peptides of protein N of SARS-CoV Urbani [2] | Binding of serum 37 to linear peptides of protein N of SARS-CoV Urbani [2] | Binding of serum 62 to linear peptides of protein N of SARS-CoV Urbani [2] | Binding of serum London to linear peptides of protein N of SARS-CoV Urbani [2] | also measured
EGSRGGSQASSRSSS | 0.2 | 0.7 | 0.4 | 0.3 | 0.4 | 0.6 | 0.6 | 0.4 | 0.4 | 0.7 | 0.7 | 0.1 | 0.2 | – | – | – | – | – | – | – | Binding of serum 1a to linear peptide (PEPSCAN-ELISA) [2]: 0.3; Binding of serum 1b to linear peptide (PEPSCAN-ELISA) [2]: 0.2; Binding of serum 2 to linear peptide (PEPSCAN-ELISA) [2]: 0.3; Binding of serum 6 to linear peptide (PEPSCAN-ELISA) [2]: 0.4; Binding of serum 37 to linear peptide (PEPSCAN-ELISA) [2]: 0.9; Binding of serum 62 to linear peptide (PEPSCAN-ELISA) [2]: 0.8; Binding of serum London to linear peptide (PEPSCAN-ELISA) [2]: 0.5; Binding of serum SARS-green to linear peptide (PEPSCAN-ELISA) [2]: 0.6; Binding of serum SARS-yellow to linear peptide (PEPSCAN-ELISA) [2]: 0.6; Binding of Control Serum Blood-Bank to Looped peptides [4]: 0.7; Binding of Control serum Blood-bank to linear peptides [4]: 1.0; Binding of Control serum LUMC to linear peptides [4]: 1.0; Binding of Control serum LUMC to looped peptides [4]: 0.8
EVTPSGTWLTYHGAI | 0.1 | 0.3 | 0.4 | 0.3 | 0.5 | 0.3 | 0.8 | 0.9 | 0.5 | 0.7 | 0.4 | 0.1 | 0.2 | 0.2 | 0.1 | 0.1 | 0.2 | 0.7 | 0.5 | 0.4 | Binding of serum SARS-green to linear peptides of protein N of SARS-CoV Urbani [2]: 0.1; Binding of serum SARS-yellow to linear peptides of protein N of SARS-CoV Urbani [2]: 0.5; Control Serum Blood-Bank Looped peptides [4]: 0.8; Control serum Blood-bank linear peptides [4]: 0.7; Control serum LUMC linear peptides [4]: 0.6; Control serum LUMC looped peptides [4]: 0.7
FAPSASAFFGMSRIG | 0.0 | 0.3 | 0.3 | 0.1 | 0.4 | 0.3 | 0.5 | 0.4 | 0.9 | 0.0 | 0.5 | 0.1 | 0.2 | 0.2 | 0.1 | 0.2 | 0.1 | 0.6 | 0.5 | 0.4 | Binding of serum SARS-green to linear peptides of protein N of SARS-CoV Urbani [2]: 0.4; Binding of serum SARS-yellow to linear peptides of protein N of SARS-CoV Urbani [2]: 0.5; Control Serum Blood-Bank Looped peptides [4]: 0.4; Control serum Blood-bank linear peptides [4]: 0.5; Control serum LUMC linear peptides [4]: 0.6; Control serum LUMC looped peptides [4]: 0.4

Source: patent US20070128217A1 (priority 2003, published 2007)
